Results from patent US20020081661A1 (Synaptic Pharmaceutical Corporation, priority 1992, published 2002).
Like-named read-outs stand apart in the source and are kept apart here.

Columns and labels:
[1] = target: T1, human 5-HT4 receptor S10-95 (CG-17) (Homo sapiens, UniProt Q13639); test: [3H]5-HT displacement binding, human CG-17 clone; details: for fold higher affinity for the human CG-17 clone: human CG-17 compared with rat clones; for activity at the CG-17 clone: [3H]5-HT displacement, up to concentration of 1 μM
T1 construct: Isolation of the full length human S10-95 cDNA clone; expressed in transfected cells; host or cells: COS-7 (transient, DEAE-dextran)
T1 sequence (Q13639 whole entry): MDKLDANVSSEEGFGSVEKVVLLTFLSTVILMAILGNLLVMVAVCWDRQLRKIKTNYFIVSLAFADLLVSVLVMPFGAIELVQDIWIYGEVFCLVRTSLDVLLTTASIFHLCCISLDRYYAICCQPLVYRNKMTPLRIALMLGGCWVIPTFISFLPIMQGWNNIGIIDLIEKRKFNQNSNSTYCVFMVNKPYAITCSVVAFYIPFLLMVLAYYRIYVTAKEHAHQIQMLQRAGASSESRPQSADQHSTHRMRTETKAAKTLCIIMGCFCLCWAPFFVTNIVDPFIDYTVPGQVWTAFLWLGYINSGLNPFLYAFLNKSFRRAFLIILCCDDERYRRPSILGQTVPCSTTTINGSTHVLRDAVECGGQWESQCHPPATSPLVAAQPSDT
Protocol: (§2) Membrane Preparation: Membranes were prepared from transiently transfected COS-7 cells which were grown to 100% confluence. The cells were washed twice with phosphate-buffered saline, scraped from the culture dishes into 5 ml of ice-cold phosphate-buffered saline, and centrifuged at 200×g for 5 min at 4′. The pellet was resuspended in 2.5 ml of ice-cold Tris buffer (20 mM Tris -HCl, pH 7.4 at 23°, 5 mM EDTA), and homogenized by a Wheaton tissue grinder. The lysate was subsequently centrifuged at 200×g for 5 min at 4° to pellet large fragments which were discarded. The supernatant was collected and centrifuged at 40,000×g for 20 min at 4°. The pellet resulting from this centrifugation was washed once in ice-cold Tris wash buffer and finally resuspended in a final buffer containing 50 mM Tris-HCl and 0.5 mM EDTA, pH 7.4 at 23°. Membrane preparations were kept on ice and utilized within two hr for the radioligand binding assays.
(§3) The binding profile of drugs in competition experiments was established using 7 concentrations of compound. Incubation times were 30 min for both saturation and displacement studies. […] Binding was initiated by the addition of 50 μl membrane homogenates (10-20 μg). The reaction was terminated by rapid filtration through presoaked (0.5% polyethyleneimine) filters using 48R Cell Brandel Harvester (Gaithersburg, Md.). Subsequently, filters were washed for 5 sec with ice cold buffer (50 mM Tris HCL, pH 7.4 at 4° C.), dried and placed into vials containing 2.5 ml of Readi-Safe (Beckman, Fullerton, Calif.), and radioactivity was measured using a Beckman LS 6500C liquid scintillation counter. […] Binding data were analyzed by computer-assisted nonlinear regression analysis (Accufit and Accucomp, Lundon Software, Chagrin Falls, Ohio).

[2] = target: T2, rat 5-HT4 (CG-7) receptor (Rattus norvegicus, UniProt Q62758); test: cAMP formation in intact Cos-7 cells transiently expressing CG-7; assay type: cell-based; details: for I. A. (intrinsic activity): CG-7, maximum response normalized to 5-HT maximum = 1.0; for agonist / antagonist character: CG-7, cAMP response; for effect on responses to 5-HT: CG-7, 10 μM
T2 construct: two individual full length cDNA clones, S10-87 and S10-95, were isolated; expressed in transfected cells; host or cells: COS-7 (transient, DEAE-dextran)
T2 sequence (Q62758 1-387 isoform Q62758-2): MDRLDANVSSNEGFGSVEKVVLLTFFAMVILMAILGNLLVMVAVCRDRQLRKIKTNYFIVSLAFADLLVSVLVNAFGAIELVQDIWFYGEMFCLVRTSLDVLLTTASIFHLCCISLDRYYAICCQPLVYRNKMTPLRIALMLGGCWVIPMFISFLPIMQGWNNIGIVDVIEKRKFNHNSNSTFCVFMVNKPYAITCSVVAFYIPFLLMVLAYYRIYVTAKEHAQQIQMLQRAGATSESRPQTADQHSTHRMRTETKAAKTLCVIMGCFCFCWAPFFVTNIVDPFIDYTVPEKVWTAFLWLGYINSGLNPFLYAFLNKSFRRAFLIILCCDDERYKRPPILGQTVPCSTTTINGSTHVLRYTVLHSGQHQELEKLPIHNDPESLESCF
Protocol: (§1) Measurement of cAMP Formation: The transiently transfected Cos-7 cells were incubated in Dulbecco's modified Eagle's medium, 5 mM theophylline, 10 mM Hepes (4-[2-Hydroxyethyl]-1-piperazineethanesulfonic acid), 10 μM pargyline, and/or appropriate concentrations of antagonists for 20 minutes at 37° C., 5% CO2. […] The media was aspirated and the reaction stopped by the addition of 100 mM HCl. The plates were stored at 4° C. for 15 minutes, centrifuged for 5 minutes, 500×g to pellet cellular debris, and the supernatant aliquotted and stored at −20° C. prior to assessment of cAMP formation by radioimmunoassay (cAMP Radioimmunoassay kit, Advanced Magnetics, Cambridge, Mass.). Radioactivity was quantitated using a Packard COBRA Auto Gamma Counter equipped with data reduction software. Functional data was fitted to a four parameter logistic equation to obtain response parameters (EC50, Emax, nH; Inplot, GraphPad, San Diego, Calif.).

[3] = target: T3, rat 5-HT4 receptor S10-87 (CG-7) (Rattus norvegicus, UniProt Q62758); test: [3H]5-HT radioligand binding (saturation and displacement), membranes of Cos-7 cells transiently expressing rat S10-87 (CG-7)
T3 sequence (Q62758 1-387 isoform Q62758-2): as above
Protocol: as §2, §3

[4] = target: T4, rat 5-HT4 receptor S10-95 (CG-8) (Rattus norvegicus, UniProt Q62758); test: [3H]GR113808 binding (saturation and displacement), COS-7 membranes, rat clone CG-8; design: two individual full length cDNA clones, S10-87 and S10-95, were isolated; expressed in transfected cells; host or cells: COS-7 (transient, DEAE-dextran); details: for effect on [3H]GR113808 binding: CG-8, concentrations up to 1 μM
T4 sequence (Q62758 whole entry): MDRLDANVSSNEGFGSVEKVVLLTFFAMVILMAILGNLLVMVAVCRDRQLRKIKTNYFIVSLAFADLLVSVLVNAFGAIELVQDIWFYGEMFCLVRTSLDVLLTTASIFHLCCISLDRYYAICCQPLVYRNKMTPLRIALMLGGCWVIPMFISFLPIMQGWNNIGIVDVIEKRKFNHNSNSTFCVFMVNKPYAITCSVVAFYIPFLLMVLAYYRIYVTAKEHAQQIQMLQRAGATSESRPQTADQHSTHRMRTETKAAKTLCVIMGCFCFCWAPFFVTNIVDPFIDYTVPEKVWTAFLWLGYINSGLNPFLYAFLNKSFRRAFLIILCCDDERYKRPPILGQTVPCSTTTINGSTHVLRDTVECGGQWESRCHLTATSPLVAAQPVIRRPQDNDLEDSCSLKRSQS
Protocol: as §2
(§4) The binding profile of drugs in competition experiments was established using 10-12 concentrations of compound. Incubation times were 30 min for both saturation and displacement studies.

[5] = target: T3, rat 5-HT4 receptor S10-87 (CG-7); test: [3H]GR113808 binding (saturation and displacement), COS-7 membranes, rat clone CG-7; design: two individual full length cDNA clones, S10-87 and S10-95, were isolated; expressed in transfected cells; host or cells: COS-7 (transient, DEAE-dextran); details: for effect on [3H]GR113808 binding: CG-7, concentrations up to 1 μM
Protocol: as §2, §4

[6] = target: T5, rat 5-HT4 (CG-8) receptor (Rattus norvegicus, UniProt Q62758); test: cAMP formation in intact Cos-7 cells transiently expressing CG-8; assay type: cell-based; details: for I. A. (intrinsic activity): CG-8, maximum response normalized to 5-HT maximum = 1.0; for agonist / antagonist character: CG-8, cAMP response; for effect on responses to 5-HT: CG-8, 10 μM
T5 construct: two individual full length cDNA clones, S10-87 and S10-95, were isolated; expressed in transfected cells; host or cells: COS-7 (transient, DEAE-dextran)
T5 sequence (Q62758 whole entry): as above
Protocol: as §1

[7] = target: T6, 5-HT4 receptor, rat oesophagus (Rattus norvegicus, UniProt Q62758); details: Grossmann et al., 1993; cited from earlier work
T6 construct: host or cells: rat oesophagus
T6 sequence (Q62758 whole entry): as above

[8] = target: T4, rat 5-HT4 receptor S10-95 (CG-8); test: biochemical
Protocol: For transient expression, Cos-7 cells were transfected by the DEAE-Dextran method, using 1 μg of DNA /10^6 cells (Warden, D. and H. V. Thorne, 1968).
Membrane Preparation: Membranes were prepared from transiently transfected COS-7 cells which were grown to 100% confluence. The cells were washed twice with phosphate-buffered saline, scraped from the culture dishes into 5 ml of ice-cold phosphate-buffered saline, and centrifuged at 200×g for 5 min at 4′. The pellet was resuspended in 2.5 ml of ice-cold Tris buffer (20 mM Tris -HCl, pH 7.4 at 23°, 5 mM EDTA), and homogenized by a Wheaton tissue grinder. The lysate was subsequently centrifuged at 200×g for 5 min at 4° to pellet large fragments which were discarded. The supernatant was collected and centrifuged at 40,000×g for 20 min at 4°. The pellet resulting from this centrifugation was washed once in ice-cold Tris wash buffer and finally resuspended in a final buffer containing 50 mM Tris-HCl and 0.5 mM EDTA, pH 7.4 at 23°. Membrane preparations were kept on ice and utilized within two hr for the radioligand binding assays. Protein concentrations were determined by the method of Bradford (1976) using bovine serum albumin as the standard.
The binding profile of drugs in competition experiments was established using 7 concentrations of compound. Incubation times were 30 min for both saturation and displacement studies. […] Binding was initiated by the addition of 50 μl membrane homogenates (10-20 μg). The reaction was terminated by rapid filtration through presoaked (0.5% polyethyleneimine) filters using 48R Cell Brandel Harvester (Gaithersburg, Md.). Subsequently, filters were washed for 5 sec with ice cold buffer (50 mM Tris HCL, pH 7.4 at 4° C.), dried and placed into vials containing 2.5 ml of Readi-Safe (Beckman, Fullerton, Calif.), and radioactivity was measured using a Beckman LS 6500C liquid scintillation counter. […] Binding data were analyzed by computer-assisted nonlinear regression analysis (Accufit and Accucomp, Lundon Software, Chagrin Falls, Ohio). […]

[9] = target: T1, human 5-HT4 receptor S10-95 (CG-17); test: [3H]GR113808 saturation binding, human clone CG-17; details: human CG-17, [3H]GR113808 0.005-[…], preliminary; read-out: Kd (saturation analysis)
Protocol: as §2, §4

[10] = target: T7, 5-HT4 receptors, human brain (Homo sapiens, UniProt Q13639); details: Waeber et al. (1993); cited from earlier work
T7 construct: host or cells: human brain tissue
T7 sequence (Q13639 whole entry): as the sequence (Q13639 whole entry) above

[11] = target: T8, 5-HT4 receptors, guinea pig brain tissue (Cavia porcellus, UniProt O70528); details: Waeber et al., 1993, Grossmann et al.; cited from earlier work
T8 construct: host or cells: guinea pig brain tissue
T8 sequence (O70528 whole entry): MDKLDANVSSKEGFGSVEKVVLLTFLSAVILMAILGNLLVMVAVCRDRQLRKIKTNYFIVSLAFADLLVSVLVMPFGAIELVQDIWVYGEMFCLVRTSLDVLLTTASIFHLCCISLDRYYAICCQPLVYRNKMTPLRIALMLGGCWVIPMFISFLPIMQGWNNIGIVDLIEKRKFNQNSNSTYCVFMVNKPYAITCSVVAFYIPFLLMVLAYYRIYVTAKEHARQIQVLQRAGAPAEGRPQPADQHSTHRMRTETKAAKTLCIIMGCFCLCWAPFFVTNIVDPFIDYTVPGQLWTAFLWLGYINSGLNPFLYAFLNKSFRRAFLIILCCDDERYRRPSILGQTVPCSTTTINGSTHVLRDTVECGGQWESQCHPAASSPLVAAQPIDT

[12] = CG-7, stimulation of basal cAMP release
[13] = Affinity constants (Ki), CG-7, 10 nM [3H]5-HT, mean ± SEM, >1000 estimated from one point displacement at 1 uM
[14] = K1 (nM), CG-7, binding data using [3H]5-HT, Table 4
[15] = CG-7, 0.2-0.4 nM [3H]GR113808, single experiment, read-out: Affinity estimate K1
[16] = CG-8, stimulation of basal cAMP release
[17] = CG-7, stimulation of basal cAMP release, means ± S.E.M. of three experiments, read-out: EC50
[18] = CG-8, 0.2-0.4 nM [3H]GR113808, single experiment, read-out: Affinity estimate K1
[19] = CG-8, stimulation of basal cAMP release, means ± S.E.M. of three experiments, read-out: EC50
[20] = read-out: Ks (apparent dissociation constant of antagonist)

NCCc1c[nH]c2ccc(C(N)=O)cc12 [5-CT, 5-carboxyamidotryptamine]
Ki [1]: > 10000 nM | EC50 [2]: 5570 nM | I. A. (intrinsic activity) [2]: 0.85 | times less potent than 5-HT [2, 12]: ~200 fold | Ki [3, 13]: > 1000 nM | Ki [3, 14]: > 1000 nM | Ki ([3]; Kf values estimated, S10, [3H]5-HT displacement, low affinity compounds): > 1000 nM | Ki [4]: > 10000 nM | Ki [5, 15]: > 10000 nM | EC50 [6]: 1410 nM | I. A. (intrinsic activity) [6]: 1.2 | fold lower affinity than 5-HT [6, 16]: about 30 fold

NCCc1c[nH]c2ccc(O)cc12 [5-HT, serotonin]
stimulation of basal cAMP release ([2]; CG-7, 1 μM, single dose preliminary study): about 30 fold | maximum cAMP release ([2]; CG-7, FIG. 9): 0.42±0.03 pmol/ml/10 min | I. A. (intrinsic activity) [2]: 1.0 | BH (percentage of high affinity sites) ([4]; CG-8, [3H]GR113808): 24% | nH (Hill coefficient) ([4]; CG-8, [3H]GR113808): nH = 0.67 | BH (percentage of high affinity sites) ([5]; CG-7, [3H]GR113808): 22% | nH (Hill coefficient) ([5]; CG-7, [3H]GR113808): nH = 0.62 | stimulation of basal cAMP release ([6]; CG-8, 1 μM, single dose preliminary study): about 30 fold | maximum cAMP release ([6]; CG-8, FIG. 10): 0.57±0.04 pmol/ml/10 min | I. A. (intrinsic activity) [6]: 1.0

COc1ccc2[nH]cc(CCN)c2c1 [5-MeOT, 5-methoxytryptamine]
Ki [1]: 71 nM | fold less potent at the human CG-17 ([1]; human CG-17 compared to the rat clones): approximately 3 fold | fold higher affinity for the human CG-17 clone [1]: ~5 fold | EC50 [2]: 21 ± 6 nM | I. A. (intrinsic activity) [2]: 1.0 | times less potent than 5-HT [2, 12]: approximately equipotent | Ki [3, 13]: 27.5 ± 5 nM | Ki [3, 14]: 27 ± 5 nM | Ki [4]: 518 nM | nH (Hill coefficient) ([4]; CG-8, [3H]GR113808): nH = 0.66 | Ki ([5]; Affinity estimate K1, CG-7, 0.2-0.4 nM [3H]GR113808, single experiment): 438 nM | BH (percentage of high affinity sites) ([5]; CG-7, [3H]GR113808): 17% | nH (Hill coefficient) ([5]; CG-7, [3H]GR113808): nH = 0.57 | Ki ([5]; KH (affinity for the high affinity state), CG-7, [3H]GR113808): 14 nM | Ki ([5]; read-out: KL (affinity for the low affinity state), CG-7, [3H]GR113808): 658 nM | EC50 [6]: 31 ± 13 nM | I. A. (intrinsic activity) [6]: 1.0 | fold lower affinity than 5-HT [6, 16]: approximately equipotent

CCCN(CCC)C1CCc2cccc(O)c2C1 (centres unmarked) [8-OH-DPAT, 8-hydroxy-2-(di-n-propylamino)tetralin]
Ki [1]: > 1000 nM | activity at the CG-17 clone [1]: inactive | Ki [3]: > 1000 nM | Ki [3, 13]: > 1000 nM | effect on [3H]GR113808 binding [4]: no effect | effect on [3H]GR113808 binding [5]: no effect

COc1cc(N)c(Cl)cc1C(=O)NC1CCN(CCCOc2ccc(F)cc2)CC1OC (centres unmarked) [Cisapride, cisapride]
agonist / antagonist character [2]: partial agonists | I. A. (intrinsic activity) [2]: 1.2 | times less potent than 5-HT [2, 12]: about 10 fold | EC50 [2, 17]: 191 ± 26 nM | Ki [3, 13]: 10.9 ± 0.3 nM | Ki [3, 14]: 11 ± 0.3 nM | Ki [4, 18]: 84 nM | BH (percentage of high affinity sites) ([4]; CG-8, [3H]GR113808): 11% | nH (Hill coefficient) ([4]; CG-8, [3H]GR113808): nH = 0.83 | Ki ([4]; CG-8, [3H]GR113808, read-out: KH (affinity for the high affinity state)): 2.7 nM | Ki ([4]; read-out: KL (affinity for the low affinity state), CG-8, [3H]GR113808): 105 nM | agonist / antagonist character [6]: partial agonists | I. A. (intrinsic activity) [6]: 1.4 | EC50 [6, 19]: 413 ± 199 nM

Cn1cc(C(=O)OCC2CCN(CCNS(C)(=O)=O)CC2)c2ccccc21 [GR113808]
affinity from functional receptor assays [7]: about 0.3 nM

CN1[C@@H]2CC[C@H]1C[C@@H](OC(=O)c1c[nH]c3ccccc13)C2 [ICS 205930]
fold lower affinity in the functional assay as compared to the binding experiments ([2]; CG-7): ~10 fold | agonist / antagonist character [2]: silent antagonist | I. A. (intrinsic activity) [2]: 0 | Kd [2, 20]: 962 ± 244 nM | Ki [8]: 138 ± 26 nM | Ki [3, 13]: 115 ± 12 nM | Ki [3, 14]: 115 ± 12 nM | Ki [4, 18]: 529 nM | fold lower affinity in the functional assay as compared to the binding experiments ([6]; CG-8): approximately 6 fold | agonist / antagonist character [6]: silent antagonist | I. A. (intrinsic activity) [6]: 0 | Kd [6, 20]: 607 ± 30 nM

O=C(c1ccc(F)cc1)C1CCN(CCn2c(=O)[nH]c3ccccc3c2=O)CC1 [Ketanserin, ketanserin]
activity at the CG-17 clone [1]: inactive | Ki ([1]; read-out: Ki): > 1000 nM | Ki [3]: > 1000 nM | Ki [3, 13]: > 1000 nM | effect on [3H]GR113808 binding [4]: no effect | effect on [3H]GR113808 binding [5]: no effect

CNS(=O)(=O)Cc1ccc2[nH]cc(CCN(C)C)c2c1 [Sumatriptan, sumatriptan]
activity at the CG-17 clone [1]: inactive | Ki ([1]; read-out: Ki): > 1000 nM | Ki [3]: > 1000 nM | Ki [3, 13]: > 1000 nM | effect on [3H]GR113808 binding [4]: no effect | effect on [3H]GR113808 binding [5]: no effect

Cn1cc(C(=O)OCC2CCN(CCNS(C)(=O)=O)CC2)c2ccccc21 [[^3H]GR113808]
Kd [9]: 0.2 nM | Kd [10]: 0.23 to 0.37 nM | Kd [11]: 0.13 to 0.2 nM

CCN(CC)C(=O)[C@@H]1C=C2c3cccc4[nH]cc(c34)C[C@H]2N(C)C1 [d-LSD]
Ki [4, 18]: > 10000 nM | Ki [5, 15]: > 10000 nM

CSc1ccc2c(c1)C(N1CCN(C)CC1)Cc1ccccc1S2 (centres unmarked) [methiothepin]
effect on responses to 5-HT [2]: not affected | effect on responses to 5-HT [6]: not affected

O=C(CCCN1CCC2(CC1)C(=O)NCN2c1ccccc1)c1ccc(F)cc1 [spiperone]
effect on responses to 5-HT [2]: not affected | effect on responses to 5-HT [6]: not affected

CC(N)Cc1c[nH]c2ccc(O)cc12 (stereo not drawn) [α-Me-5-HT]
Ki ([1]; human CG-17, 10 nM [3H]5-HT, single experiment, >1,000 from one point displacement at 1 μM, read-out: Ki): 1.6 nM | fold higher affinity for the human CG-17 clone [1]: approximately 100 fold | I. A. (intrinsic activity) [2]: 0.90 | times less potent than 5-HT [2, 12]: about 10 fold | EC50 [2, 17]: 250 ± 91 nM | Ki [4, 18]: 1860 nM | Ki [5, 15]: 2260 nM | I. A. (intrinsic activity) [6]: 1.0 | fold lower affinity than 5-HT [6, 16]: approximately 20 fold | EC50 [6, 19]: 1040 nM
